Results on 1 compound are retold here after patent US11267802B2 (BEBETTER MED INC., priority 2015, dated 2022).

Series [1] is described as follows: Pharmacokinetics in rats after oral administration. In kind it is in vivo, SD rats.
The subject of series [2] is EGFR phosphorylation in H1975 xenograft tumor. Put plainly: Pharmacodynamic experiments of tumor model (EGFR phosphorylation, Western blot). In kind it is in vivo, Balb/C nude mice. The following applies: oral 30 mg/kg. As for the experimental part: Balb/C nude mice were purchased from Beijing Vital River Laboratory Animal Technology Co., Ltd., and housed in SPF animal room. The human non-small-cell lung cancer cell line H1975 in a culture dish was collected by trypsin-EDTA (0.25% trypsin, 1 mM EDTA), and then washed with a serum-free PBS solution. Lastly, the cells were implanted after diluted in a serum-free medium. Only the single cell suspension with a survival rate over 90% (Trypan blue rejection) can be used for injection. 5 million cells suspended in a 0.1 ml serum-free culture were injected into the front right flanking subcutaneous region of each mouse by using a 1 ml syringe and a 25G syringe needle, and the blood vessel was carefully avoided. The tumor size was measured in about one week after implantation. A caliper rule was used to measure the tumor size. The tumor volume was calculated by the following formula: tumor volume=(length×width^2)/2.
When the H1975 xenograft tumor reached a volume of about […], the animals were divided into 4 oral administration groups, that is, excipient control group (0 hour) and groups of 2 hours, 4 hours, and 8 hours after administration (3 to 4 animals at each time point). […]
20 mg of tumor tissue was homogenized in 300 μl of protein extract (RIPA, CST, #9806). […] The protein concentration was determined by Bradford method (Beyotime, # P0006). […]
On the technique in general: A western blot detects proteins with antibodies after separation by electrophoresis.

The target of the next series is T1, EGFR T790M/L858R (Homo sapiens, UniProt P00533, L858R/T790M).
T1 construct: purchased Invitrogen PR8911A
The series is described as follows: Mutant EGFR T790M/L858R activity inhibition assay (Caliper mobility shift). In kind it is biochemical. As to conditions: read-out: enzyme activity inhibition (IC50) EGFR T790M/L858R. The essentials:
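Compound added in 10% DMSO at 5-fold final concentration; substrate conversion read by Caliper mobility shift. Inhibition = (max−conversion)/(max−min)×100, with max from DMSO no-compound wells and min from no-enzyme wells; IC50 from fitted concentration–response curve.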

Setting [3] is: male, SD, rat, 20 mg/kg, plasma.

pIC50: −log10 of the molar value.

T1 sequence (P00533 25-1210 T790M/L858R): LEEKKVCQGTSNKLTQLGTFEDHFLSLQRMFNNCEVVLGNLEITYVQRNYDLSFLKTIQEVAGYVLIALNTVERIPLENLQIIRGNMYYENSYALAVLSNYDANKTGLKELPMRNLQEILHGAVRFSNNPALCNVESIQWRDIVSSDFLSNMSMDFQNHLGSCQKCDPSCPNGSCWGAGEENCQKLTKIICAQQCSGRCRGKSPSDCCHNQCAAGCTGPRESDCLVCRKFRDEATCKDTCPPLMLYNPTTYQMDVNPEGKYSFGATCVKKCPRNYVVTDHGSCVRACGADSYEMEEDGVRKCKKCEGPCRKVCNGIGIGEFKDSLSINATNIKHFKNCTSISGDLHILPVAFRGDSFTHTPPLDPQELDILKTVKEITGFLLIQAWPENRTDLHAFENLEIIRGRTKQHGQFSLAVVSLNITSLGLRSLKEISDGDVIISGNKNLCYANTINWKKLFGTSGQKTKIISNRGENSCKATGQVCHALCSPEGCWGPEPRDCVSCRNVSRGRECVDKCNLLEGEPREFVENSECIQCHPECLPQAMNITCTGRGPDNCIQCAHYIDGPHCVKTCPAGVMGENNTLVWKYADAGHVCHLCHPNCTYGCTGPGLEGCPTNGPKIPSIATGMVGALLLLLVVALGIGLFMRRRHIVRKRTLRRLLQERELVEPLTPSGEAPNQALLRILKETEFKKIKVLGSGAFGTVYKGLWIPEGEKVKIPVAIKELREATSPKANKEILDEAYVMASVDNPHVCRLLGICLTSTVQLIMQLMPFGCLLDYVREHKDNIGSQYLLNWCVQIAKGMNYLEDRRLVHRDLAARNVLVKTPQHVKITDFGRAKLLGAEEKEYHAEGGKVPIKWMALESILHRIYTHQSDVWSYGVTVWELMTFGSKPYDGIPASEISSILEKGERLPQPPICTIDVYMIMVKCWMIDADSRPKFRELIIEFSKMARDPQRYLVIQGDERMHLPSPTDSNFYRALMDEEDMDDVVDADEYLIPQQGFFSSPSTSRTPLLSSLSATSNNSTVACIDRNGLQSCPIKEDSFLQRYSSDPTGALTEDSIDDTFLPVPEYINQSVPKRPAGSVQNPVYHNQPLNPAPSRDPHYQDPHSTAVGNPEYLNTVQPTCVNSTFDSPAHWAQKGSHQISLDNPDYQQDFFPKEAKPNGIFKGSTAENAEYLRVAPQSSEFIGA

The AUC(0-inf) is total exposure, with the tail of the curve extrapolated. What is called Cmax is the peak of the concentration-time curve. Broadly, the Tmax is the time at which the peak concentration occurs. In general, half-life refers to the time in which the quantity being followed falls by half. High values mean slow loss, low ones fast loss. In general, melting point refers to the temperature, or range, at which the solid turns liquid. For the compound `C=CC(=O)Nc1cc(Nc2nccc(-n3c(=O)n(C(C)C)c4cc(F)ccc43)n2)c(OC)cc1N(C)CCN(C)C` [Compound 91, N-(2-((2-(dimethylamino)ethyl)(methyl)amino)-5-(4-(5-fluoro-3-isopropyl-2-oxo-2,3-dihydro-1H-benzo[d]imidazol-1-yl)pyrimidin-2-ylamino)-4-methoxyphenyl)acrylamide], the melting point was 225 to 227 °C. In series [1], the “absorption / blood exposure after oral administration (in words)” value is given as “well absorbed, with high blood exposure”. In addition, in series [1] (setting [3]), the AUC(0-inf) amounted to 1350 ng·h/mL, the Cmax amounted to 292 ng/mL, the Tmax amounted to 1 h and the half-life is 3 h. The AUC(0-t) in series [1] (male, SD, rat, 20 mg/kg, plasma, read-out: AUC0-24) is 1340 ng·h/mL. Moreover, the “inhibition of EGFR phosphorylation in H1975 tumor (in words)” value in series [2] (at 2 hours and 4 hours) is “strong”. Also, in series [2] (at 8 hours), the “inhibition of EGFR phosphorylation in H1975 tumor (in words)” value is reported as “obvious inhibition effect”. Besides, the pIC50 at EGFR T790M/L858R is more than 9.00.
